Here are results for 7 cell lines from the supplement of paper PMC10307832.

Common to all, as to test: relative viability (nuclei count vs DMSO), 5 days (fraction); higher = more cells survive
Compound in the experiment “GW-2580 + Lapatinib”: COC1=CC=C(C=C1)COC2=C(C=C(C=C2)CC3=CN=C(N=C3N)N)OC [GW-2580] + CS(=O)(=O)CCNCc1ccc(-c2ccc3ncnc(Nc4ccc(OCc5cccc(F)c5)c(Cl)c4)c3c2)o1 [Lapatinib] (partner 2 µM)
In a few lines:
(§1)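 Cells from lung cancer lines were seeded into 1536-well plates and, one day later, dosed by pin tool. Treatments were either a single drug or a fixed dose of an anchor drug with five library-drug doses (not always all listed) in √10 steps. After 5 days, nuclei were stained in a one-step fixation (final 0.05% Triton X-100, 1% formaldehyde, 1 ug/ml Hoechst) and counted on 4× images, and relative viability is the treated-to-vehicle nuclei ratio, as the median of duplicate plates.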

Compound in the experiment “Fedratinib + Olaparib”: Cc1cnc(Nc2ccc(OCCN3CCCC3)cc2)nc1Nc1cccc(S(=O)(=O)NC(C)(C)C)c1 [Fedratinib] + O=C(c1cc(Cc2n[nH]c(=O)c3ccccc23)ccc1F)N1CCN(C(=O)C2CC2)CC1 [Olaparib] (partner 8 µM)
The method, boiled down: as §1

Compound in the experiment “GW-2580 + Dasatinib”: COC1=CC=C(C=C1)COC2=C(C=C(C=C2)CC3=CN=C(N=C3N)N)OC [GW-2580] + Cc1nc(Nc2ncc(C(=O)Nc3c(C)cccc3Cl)s2)cc(N2CCN(CCO)CC2)n1 [Dasatinib] (partner 0.075 µM)
In a few lines:
as §1

Compound in the experiment “Fedratinib + Navitoclax”: Cc1cnc(Nc2ccc(OCCN3CCCC3)cc2)nc1Nc1cccc(S(=O)(=O)NC(C)(C)C)c1 [Fedratinib] + CC1(C)CCC(c2ccc(Cl)cc2)=C(CN2CCN(c3ccc(C(=O)NS(=O)(=O)c4ccc(N[C@H](CCN5CCOCC5)CSc5ccccc5)c(S(=O)(=O)C(F)(F)F)c4)cc3)CC2)C1 [Navitoclax] (partner 0.5 µM)
In a few lines: as §1

Compound in the experiment “Fedratinib + Crizotinib”: Cc1cnc(Nc2ccc(OCCN3CCCC3)cc2)nc1Nc1cccc(S(=O)(=O)NC(C)(C)C)c1 [Fedratinib] + C[C@@H](Oc1cc(-c2cnn(C3CCNCC3)c2)cnc1N)c1c(Cl)ccc(F)c1Cl [Crizotinib] (partner 1 µM)
In a few lines:
as §1

Compound in the experiment “Fedratinib + Decitabine”: Cc1cnc(Nc2ccc(OCCN3CCCC3)cc2)nc1Nc1cccc(S(=O)(=O)NC(C)(C)C)c1 [Fedratinib] + Nc1ncn([C@H]2C[C@H](O)[C@@H](CO)O2)c(=O)n1 [Decitabine] (partner 2 µM)
The method, boiled down: as §1

For the cell line NCI-H322M, the relative viability with GW-2580 + Lapatinib (first compound 0.08 µM) worked out at 0.547; with GW-2580 + Lapatinib (first compound 0.8 µM), 0.627; with GW-2580 + Lapatinib (first compound 2.53 µM) it was 0.592; with GW-2580 + Lapatinib (first compound 8 µM), 0.573; with Fedratinib + Olaparib (first compound 0.1 µM), 0.861; with Fedratinib + Olaparib (first compound 0.3162 µM), 0.772. In addition, the relative viability in the experiment with Fedratinib + Olaparib (first compound 1 µM) turned out to be 0.643; with GW-2580 + Dasatinib (first compound 0.08 µM), 0.247; with GW-2580 + Dasatinib (first compound 0.8 µM), 0.24; in the experiment with GW-2580 + Dasatinib (first compound 2.53 µM), 0.263; in the experiment with GW-2580 + Dasatinib (first compound 8 µM), 0.253; in the experiment with Fedratinib + Navitoclax (first compound 0.1 µM), 1.16. Further, the relative viability was 1.18 in the experiment with Fedratinib + Navitoclax (first compound 0.3162 µM); 1.23 in the experiment with Fedratinib + Navitoclax (first compound 1 µM); 0.949 with Fedratinib + Crizotinib (first compound 0.1 µM); 0.877 with Fedratinib + Crizotinib (first compound 0.3162 µM); 0.966 with Fedratinib + Crizotinib (first compound 1 µM); 0.657 with Fedratinib + Decitabine (first compound 0.1 µM). Moreover, the relative viability with Fedratinib + Decitabine (first compound 0.3162 µM) worked out at 0.749; in the experiment with Fedratinib + Decitabine (first compound 1 µM), 0.64.
Consider NCI-H460, for which the relative viability worked out at 1.86 with GW-2580 + Lapatinib (first compound 0.08 µM); 1.31 with GW-2580 + Lapatinib (first compound 0.8 µM); 0.689 with GW-2580 + Lapatinib (first compound 2.53 µM); 1.01 in the experiment with GW-2580 + Lapatinib (first compound 8 µM); 0.483 with Fedratinib + Olaparib (first compound 0.1 µM); 0.395 with Fedratinib + Olaparib (first compound 0.3162 µM). In addition, the relative viability worked out at 0.415 with Fedratinib + Olaparib (first compound 1 µM); 0.574 with GW-2580 + Dasatinib (first compound 0.08 µM); 0.722 with GW-2580 + Dasatinib (first compound 0.8 µM); 0.452 with GW-2580 + Dasatinib (first compound 2.53 µM); 0.512 with GW-2580 + Dasatinib (first compound 8 µM); 1.05 in the experiment with Fedratinib + Navitoclax (first compound 0.1 µM). Moreover, the relative viability stood at 1.03 with Fedratinib + Navitoclax (first compound 0.3162 µM); 0.969 in the experiment with Fedratinib + Navitoclax (first compound 1 µM); 0.47 with Fedratinib + Crizotinib (first compound 0.1 µM); 0.767 with Fedratinib + Crizotinib (first compound 0.3162 µM); 0.812 with Fedratinib + Crizotinib (first compound 1 µM); 0.556 with Fedratinib + Decitabine (first compound 0.1 µM). For the same cell line, the figures for the relative viability with Fedratinib + Decitabine (first compound 0.3162 µM) and with Fedratinib + Decitabine (first compound 1 µM) were 0.495 and 0.232, respectively.
With NCI-H520, the relative viability with GW-2580 + Lapatinib (first compound 0.08 µM) was 0.973; in the experiment with GW-2580 + Lapatinib (first compound 0.8 µM), 0.926; with GW-2580 + Lapatinib (first compound 2.53 µM), 0.849; with GW-2580 + Lapatinib (first compound 8 µM), 0.931; in the experiment with Fedratinib + Olaparib (first compound 0.1 µM) it was 0.306; with Fedratinib + Olaparib (first compound 0.3162 µM) it was 0.347. The relative viability with Fedratinib + Olaparib (first compound 1 µM) stood at 0.29; with GW-2580 + Dasatinib (first compound 0.08 µM) it was 0.203; with GW-2580 + Dasatinib (first compound 0.8 µM), 0.238; in the experiment with GW-2580 + Dasatinib (first compound 2.53 µM) it was 0.204; with GW-2580 + Dasatinib (first compound 8 µM) it was 0.252; in the experiment with Fedratinib + Navitoclax (first compound 0.1 µM) it was 1.13. The relative viability in the experiment with Fedratinib + Navitoclax (first compound 0.3162 µM) turned out to be 1.07; with Fedratinib + Navitoclax (first compound 1 µM), 0.983; with Fedratinib + Crizotinib (first compound 0.1 µM) it was 0.716; with Fedratinib + Crizotinib (first compound 0.3162 µM), 0.703; with Fedratinib + Crizotinib (first compound 1 µM), 0.594; with Fedratinib + Decitabine (first compound 0.1 µM), 0.557. Also, the relative viability with Fedratinib + Decitabine (first compound 0.3162 µM) is 0.454; in the experiment with Fedratinib + Decitabine (first compound 1 µM) it was 0.532.
As to NCI-H596, the relative viability is 1.25 with GW-2580 + Lapatinib (first compound 0.08 µM); 1.2 in the experiment with GW-2580 + Lapatinib (first compound 0.8 µM); 0.996 with GW-2580 + Lapatinib (first compound 2.53 µM); 1.2 in the experiment with GW-2580 + Lapatinib (first compound 8 µM); 0.643 with Fedratinib + Olaparib (first compound 0.1 µM); 0.6 in the experiment with Fedratinib + Olaparib (first compound 0.3162 µM). The relative viability stood at 0.572 with Fedratinib + Olaparib (first compound 1 µM); 0.625 with GW-2580 + Dasatinib (first compound 0.08 µM); 0.543 with GW-2580 + Dasatinib (first compound 0.8 µM); 0.7 with GW-2580 + Dasatinib (first compound 2.53 µM); 0.688 with GW-2580 + Dasatinib (first compound 8 µM); 0.853 with Fedratinib + Navitoclax (first compound 0.1 µM). The relative viability in the experiment with Fedratinib + Navitoclax (first compound 0.3162 µM) was determined as 0.992; with Fedratinib + Navitoclax (first compound 1 µM) it was 0.976; with Fedratinib + Crizotinib (first compound 0.1 µM), 0.983; in the experiment with Fedratinib + Crizotinib (first compound 0.3162 µM), 1.01; in the experiment with Fedratinib + Crizotinib (first compound 1 µM), 0.973; in the experiment with Fedratinib + Decitabine (first compound 0.1 µM), 0.937. For the same cell line, the relative viability was 1.01 in the experiment with Fedratinib + Decitabine (first compound 0.3162 µM) and 0.975 with Fedratinib + Decitabine (first compound 1 µM).
Regarding NCI-H647, the relative viability with GW-2580 + Lapatinib (first compound 0.08 µM) came to 1.22; with GW-2580 + Lapatinib (first compound 0.8 µM) it was 1.29; with GW-2580 + Lapatinib (first compound 2.53 µM) it was 0.926; with GW-2580 + Lapatinib (first compound 8 µM), 1.15; in the experiment with Fedratinib + Olaparib (first compound 0.1 µM) it was 0.697; with Fedratinib + Olaparib (first compound 0.3162 µM) it was 0.467. Also, the relative viability amounted to 0.373 in the experiment with Fedratinib + Olaparib (first compound 1 µM); 0.189 with GW-2580 + Dasatinib (first compound 0.08 µM); 0.16 with GW-2580 + Dasatinib (first compound 0.8 µM); 0.11 with GW-2580 + Dasatinib (first compound 2.53 µM); 0.224 with GW-2580 + Dasatinib (first compound 8 µM); 1.14 with Fedratinib + Navitoclax (first compound 0.1 µM). Further, the relative viability with Fedratinib + Navitoclax (first compound 0.3162 µM) was determined as 1.2; with Fedratinib + Navitoclax (first compound 1 µM), 0.97; with Fedratinib + Crizotinib (first compound 0.1 µM), 1.06; with Fedratinib + Crizotinib (first compound 0.3162 µM) it was 1.09; with Fedratinib + Crizotinib (first compound 1 µM), 0.584; in the experiment with Fedratinib + Decitabine (first compound 0.1 µM), 0.581. The relative viability with Fedratinib + Decitabine (first compound 0.3162 µM) stood at 0.327; with Fedratinib + Decitabine (first compound 1 µM), 0.372.
Turning to NCI-H727, the relative viability with GW-2580 + Lapatinib (first compound 0.08 µM) turned out to be 0.792; with GW-2580 + Lapatinib (first compound 0.8 µM), 1.04; with GW-2580 + Lapatinib (first compound 2.53 µM), 0.735; with GW-2580 + Lapatinib (first compound 8 µM) it was 0.791; in the experiment with Fedratinib + Olaparib (first compound 0.1 µM), 0.732; in the experiment with Fedratinib + Olaparib (first compound 0.3162 µM), 0.787. The relative viability with Fedratinib + Olaparib (first compound 1 µM) came to 0.741; in the experiment with GW-2580 + Dasatinib (first compound 0.08 µM), 0.414; with GW-2580 + Dasatinib (first compound 0.8 µM), 0.409; with GW-2580 + Dasatinib (first compound 2.53 µM), 0.44; with GW-2580 + Dasatinib (first compound 8 µM), 0.299; with Fedratinib + Navitoclax (first compound 0.1 µM), 0.381. Moreover, the relative viability with Fedratinib + Navitoclax (first compound 0.3162 µM) is 0.346; with Fedratinib + Navitoclax (first compound 1 µM), 0.213; in the experiment with Fedratinib + Crizotinib (first compound 0.1 µM), 0.791; with Fedratinib + Crizotinib (first compound 0.3162 µM), 0.688; in the experiment with Fedratinib + Crizotinib (first compound 1 µM), 0.661; with Fedratinib + Decitabine (first compound 0.1 µM), 0.864. The values for the relative viability in the experiment with Fedratinib + Decitabine (first compound 0.3162 µM) and in the experiment with Fedratinib + Decitabine (first compound 1 µM) were 0.792 and 0.874, respectively.
Take NCI-H838: the relative viability with GW-2580 + Lapatinib (first compound 0.08 µM) was determined as 0.994; in the experiment with GW-2580 + Lapatinib (first compound 0.8 µM), 1.11; with GW-2580 + Lapatinib (first compound 2.53 µM), 0.789; in the experiment with GW-2580 + Lapatinib (first compound 8 µM) it was 0.987; with Fedratinib + Olaparib (first compound 0.1 µM), 0.677; with Fedratinib + Olaparib (first compound 0.3162 µM) it was 0.837. For the same cell line, the relative viability with Fedratinib + Olaparib (first compound 1 µM) stood at 0.6; in the experiment with GW-2580 + Dasatinib (first compound 0.08 µM), 0.295; with GW-2580 + Dasatinib (first compound 0.8 µM), 0.344; in the experiment with GW-2580 + Dasatinib (first compound 2.53 µM), 0.241; with GW-2580 + Dasatinib (first compound 8 µM), 0.316; with Fedratinib + Navitoclax (first compound 0.1 µM), 1.11. The relative viability worked out at 1.17 in the experiment with Fedratinib + Navitoclax (first compound 0.3162 µM); 1.06 in the experiment with Fedratinib + Navitoclax (first compound 1 µM); 0.669 with Fedratinib + Crizotinib (first compound 0.1 µM); 0.847 with Fedratinib + Crizotinib (first compound 0.3162 µM); 0.745 with Fedratinib + Crizotinib (first compound 1 µM); 0.444 with Fedratinib + Decitabine (first compound 0.1 µM). Also, the relative viability in the experiment with Fedratinib + Decitabine (first compound 0.3162 µM) is 0.454; with Fedratinib + Decitabine (first compound 1 µM), 0.431.
